Assay results: PMC12690644 (RSC Advances, 2025)

Experiments:
[1] = target: acetylcholinesterase (AChE); experiment: colorimetric kinetic kit assay, […] nm; format: biochemical; conditions: room temperature, 10-15 min preincubation
β-secretase (BACE-1) = β-secretase (BACE-1) (Homo sapiens, UniProt P56817); experiment: fluorescence kit assay, slope based; format: biochemical
Chain of β-secretase (BACE-1) (P56817 46-501): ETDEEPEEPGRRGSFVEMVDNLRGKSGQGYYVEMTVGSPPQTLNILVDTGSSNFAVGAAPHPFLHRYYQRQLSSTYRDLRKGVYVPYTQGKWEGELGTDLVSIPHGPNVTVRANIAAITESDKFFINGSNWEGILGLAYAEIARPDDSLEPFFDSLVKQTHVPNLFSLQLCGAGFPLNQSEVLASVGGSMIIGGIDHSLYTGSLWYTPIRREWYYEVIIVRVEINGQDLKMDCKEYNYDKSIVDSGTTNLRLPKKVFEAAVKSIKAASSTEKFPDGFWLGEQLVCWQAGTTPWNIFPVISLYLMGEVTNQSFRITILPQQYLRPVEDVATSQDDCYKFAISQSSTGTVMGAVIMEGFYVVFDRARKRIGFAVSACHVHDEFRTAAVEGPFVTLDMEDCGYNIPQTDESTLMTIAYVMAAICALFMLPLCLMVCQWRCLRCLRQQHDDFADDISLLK

| Structure (SMILES) | AChE (μg mL^-1 ± SD) [1] [µg/mL] | IC50 (β-secretase (BACE-1)) [µM] |
| --- | --- | --- |
| CC(=O)[N+](C)(CCl)CCc1ccc(O)cc1 (centres unmarked) [compound 7, N-acetyl-N-chloromethyl-N-methyl tyramine] | 0.607 ± 0.02 | 0.494 |
| C[N+](C)(CCl)CCc1ccc(O)cc1 [compound 5, N-chloromethyl hordenine] | 0.076 ± 0.002 | 1.25 |
| CC(=O)[N+](C)(C)CCc1ccc(O)cc1 [compound 6, N-acetyl hordenine] | 2.255 ± 0.074 | 8.21 |
| COc1c(-c2ccc(O)cc2)oc2cc(O)cc(O)c2c1=O [compound 3, isokaempferide] | 0.483 ± 0.015 | 0.446 |
| O=C1C[C@@H](c2ccc(O)cc2)Oc2cc(O)cc(O)c21 [compound 1, naringenin] | 0.212 ± 0.007 | 1.55 |
| CC1=CC(=O)CC(C)(C)[C@@]1(O)/C=C/[C@@H](C)O[C@@H]1O[C@H](CO)[C@@H](O)[C@H](O)[C@H]1O [compound 4, vomifoliol-9-O-β-D-glucopyranoside] | 0.452 ± 0.014 | 0.171 |
| O=c1c(O)c(-c2ccc(O)cc2)oc2cc(O)cc(O)c12 [compound 2, 3,4′,5,7-tetrahydroxyflavone] | 1.099 ± 0.03 | 25.1 |
